We go through 3 compounds from patent US20250049811A1, “METHODS OF TREATING PANCREATIC CANCER BY USING BET INHIBITOR AND PARP INHIBITOR” (NATIONAL CHENG KUNG UNIVERSITY, priority 2023, published 2025).

Molecules are shown by their SMILES.

For experiment [1], the system named is MIA-PaCa2 cells. Briefly: MTT cytotoxicity / cell viability assay, MIA-PaCa2. It is filed as cell-based. The following applies: Homo sapiens, MIA PaCa-2, 72 hours post-treatment, read-out: IC50 values in specified pancreatic cancer cell line. As for the experimental part: (§1) Four human PDAC cell lines were used in this study, including MIA-PaCa2, Panc-1, AsPC1, and BxPC3, in which the MIA-PaCa2, Panc-1 and AsPC1 comprises a KRAS mutation (i.e., KRAS mutant cell lines), and the BxPC3 has a wild-type KRAS gene (see, for example, Wen-Hsuan Chang et al., Cancer Lett. (2021), 517: 66-77; and Radu Pirlog et al., J Clin Invest. (2022), 132(14): e161454). The MIA-PaCa2 cells were cultured in RPMI1640 medium containing 10% fetal bovine serum (FBS) and 1% penicillin/streptomycin. The AsPC1, BxPC3 and Panc-1 cells were cultured in DMEM high glucose medium supplemented with 10% FBS and 1% penicillin/streptomycin.
(§2) Cytotoxicity and cell proliferation were determined by using 3-(4,5-dimethylthiazol-2-yl)-2,5-diphenyltetrazolium bromide (MTT) assay. Specifically, the MIA-PaCa2 and Panc-1 were seeded in a 96-well plate (5×10^3 cells/well). […] The resulting formazan crystals were dissolved using dimethyl sulfoxide (DMSO), and the absorbance was measured at 495 nm using a microplate reader. The cell proliferation ability was quantified as the optical density (OD) value. The cytotoxicity induced by the treatments was determined by calculating the percentage of viable cells (dividing the optical density of the drug-treated samples by that of the control samples). […]

Experiment [2] concerns AsPC1 cells. In words: MTT cytotoxicity / cell viability assay, AsPC1. The format is cell-based. The following applies: Homo sapiens, 72 hours post-treatment, read-out: IC50 values in specified pancreatic cancer cell line. The method, then:
as §1, §2

The subject of experiment [3] is MIA-PaCa2 subcutaneous tumor. Briefly: Subcutaneous tumor model. The format is in vivo, NOD-SCID male mice. The following applies: oral, five times per week for three weeks; mivebresib 1 mg/Kg, rucaparib 10 mg/Kg; FIG. 2. As for the experimental part:
The MIA-PaCa2 cells (2×10^6) were suspended in 10 μL phosphate buffered saline (PBS), and then subcutaneously injected to NOD-SCID male mice (6-8 weeks old). After 14 days (the tumor size was about 100-150 mm^3), PBS, mivebresib (1 mg/Kg), rucaparib (10 mg/Kg), or the combination of mivebresib and rucaparib (1 mg/Kg of mivebresib plus 10 mg/Kg of rucaparib) was orally administered to the mice five times per week, for three consecutive weeks. The tumor size was measured using caliper every 2-3 days, until the mice met humane endpoint criteria and were euthanized.
Two tumor models, including subcutaneous and orthotropic tumor models, were used in the example to evaluate the anti-tumor effect of mivebresib and rucaparib on pancreatic cancer. As described in “Materials and Methods”, the tumor-bearing mice were respectively administered with PBS, mivebresib, rucaparib, and the combination of mivebresib and rucaparib. The tumor sizes were monitored by caliper and IVIS® imaging system. The results were respectively depicted in FIG. 2 (subcutaneous tumor model) and FIG. 3 (orthotropic tumor model).

Experiment [4] deals with Panc-1 cells. In words: MTT cytotoxicity / cell viability assay, Panc-1. It is filed as cell-based. The following applies: Homo sapiens, 72 hours post-treatment, read-out: IC50 values in specified pancreatic cancer cell line. The method, then: as §1, §2
Experiment [5] deals with BxPC3 cells. Briefly: MTT cytotoxicity / cell viability assay, BxPC3. The format is cell-based. To be noted: Homo sapiens, BXPC-3, 72 hours post-treatment, read-out: IC50 values in specified pancreatic cancer cell line. As for the experimental part: as §1, §2
In experiment [6] the test system is pancreatic cancer. Briefly: Overall survival of pancreatic cancer patients with neoadjuvant chemotherapy. The format is in vivo, human. The following applies: patients with cisplatin treatment (without: 18.96 months); data not shown. As for the experimental part:
Whether neoadjuvant chemotherapy (a chemotherapy that a cancer patient receives before the primary course of surgical treatment) would affect the overall survival of cancer patients was determined in the example. According to the results, the overall survivals of patient with or without cisplatin treatment were respectively 26.36 and 18.96 months (data not shown). Then, the patients receiving the platinum-based therapy were further divided into responder group and non-responder group.

The IC50 is the midpoint of a concentration-inhibition curve. With `CNCc1ccc(-c2[nH]c3cc(F)cc4c3c2CCNC4=O)cc1` [Rucaparib, rucaparib], the IC50 turned out to be 2.44 µM in experiment [1], 2.36 µM in experiment [2], 1.98 µM in experiment [4] and 2.51 µM in experiment [5]. The “tumor growth (tumor size by caliper)” value in experiment [3] is recorded as “inhibited tumor growth”.

`CCS(=O)(=O)Nc1ccc(Oc2ccc(F)cc2F)c(-c2cn(C)c(=O)c3[nH]ccc23)c1` [Mivebresib, mivebresib]: the IC50 came out at 0.26 µM in experiment [1], 0.191 µM in experiment [2], 1.41 µM in experiment [4] and 0.273 µM in experiment [5]. In addition, the “tumor growth (tumor size by caliper)” value in experiment [3] was “inhibited tumor growth”.

For the compound `N.N.[Cl][Pt][Cl]` [cisplatin], the overall survival in experiment [6] was determined as 26.36 months.
